Laboratory results taken from patent US20260234159A1, “SMALL MOLECULE TREATMENT OF FATTY LIVER DISEASE AND HCC” (SCANDIEDGE THERAPEUTICS AB, priority 2023, published 2026).

Legend:
Type in all cases: cell-based, human
c-Myc = assay: Nuclear protein western blot, c-Myc; settings: 10 μM, 2 days
Method: (§1) HepG2 cells were seeded into a 6-well plate at 400,000 cells per well. After treatment with 10 μM of JNK-IN-5A and its derivatives for two days, lysates were harvested with CelLytic M (C2978, Sigma-Aldrich). 20 μg lysate was prepared with 2× Laemmli Sample Buffer (1610737, Biorad). SDS PAGE were performed using Mini-PROTEAN® TGX™ Precast Gels (Bio-Rad) and transferred using Trans-Blot® Turbo™ Transfer System (Bio-Rad). Primary antibody, PARP (95425, Cell signalling), Caspase 3 (ab32042, abcam), Bcl-2 (ab182858), STAT1 (HPA000982, Merk), PKL (06653, Sigma), PKM (4053S, Cell signalling), GAPDH (ab8245, abcam), P53 (ab32389, abcam), p21 (ab109199, abcam), p-S349 p62 (ab211324, abcam), p62 (ab109012, abcam), c-Myc (ab32072, abcam), GPX4 (ab125066, abcam), MMP9 (MA5-32705, Invitrogen), β-actin (ab8227, abcam), and α-tubulin (ab7291, abcam) were blotted overnight and Goat Anti-Rabbit HRP (ab205718) and goat anti-mouse IgG-HRP (sc2005, Santa Cruz Biotechnology, Inc.) were blotted for secondary antibody for one hour. ImageQuantTMLAS 500 (29-0050-63, GE) was used to detect protein bands.

PARP = assay: Western blot, cleaved PARP; settings: 10 μM, 2 days
Method: as §1

HepG2 cells [1] = assay: RNA sequencing, GSEA and PROGENy pathway analysis
Method: RNA samples for RNA sequencing were extracted with RNeasy Plus Mini Kit (74134, QIAGEN). RIN score of total RNA samples was measured using RNA 6000 Nano kit (5067-1511, Agilent). 2100 Bioanalyzer Instrument (G2939BA, Agilent) was used for RIN score test using electrophoresis. Samples with a […] were submitted to SZA Omics, Istanbul for RNA sequencing analysis.
The quality, quantity, and RNA integrity number (RIN) of the samples were assessed with NanoDrop (Thermo Fisher, USA), and Bioanalyzer (2100, Agilent Technology, USA). For the RNA samples, the ratio of absorbance at 260 and 280 nm (A260/280) of […], A260/230 of 2.0-2.2, and RIN>8.0 are acceptable. All samples passed the quality control.
The Illumina Stranded Total RNA Prep, Ligation with Ribo-Zero Plus kit was used for the construction of NGS libraries from the samples with acceptable quality parameters. In short, RNA samples were sequenced with 2×100 paired-end reads by the NovaSeq 6000 system. Raw sequencing data (.bcl) was demultiplexed and converted to FASTQ files with DRAGEN Software (v3.9.5). The data was delivered in FASTQ format using Illumina 1.8 quality scores.
The quality of FASTQ files was assessed by FastQC (v0.11.9) software to ensure the quality of every sequenced sample. Kallisto (v0.48.0)16 was used to quantify the count and transcripts per million (TPM) values of transcripts based on the Homo sapiens reference cDNA (version GRCh38, Ensembl release 110). The transcript read counts and TPM values were assembled to gene level using the R package tximport (v1.28.0), with only protein-coding transcripts and genes included. The lowly expressed genes with an average count below 5 were filtered out, resulting in a total of 14,592 genes for the downstream analysis.
Differential expression analysis was conducted using the R package DESeq2 (v1.40.2) followed by the Benjamini-Hochberg procedure to correct p-values. […]

p53 = assay: Nuclear protein western blot, p53; settings: 10 μM, 2 days; compared to sorafenib and regorafenib
Method: as §1

HepG2 cells [2] = assay: DAPI and PI staining for necrotic cell death; settings: 10 μM, 2 days
Method: HepG2 cells were treated with 10 μM of the JNK-IN-5A derivatives for 2 days and cells were stained with DAPI (Blue) and PI (Red) for 30 min, at live cells. PI positive necrotic cells were counted and plotted.

Caspase 3 = assay: Western blot, active caspase 3; settings: 10 μM, 2 days
Method: as §1

HepG2 cells [3] = assay: LDH cytotoxicity assay, time dependent; settings: 10 μM, up to 4 days
Method: HepG2 cells were maintained and used with RPMI 1640 (R2405, Sigma-Aldrich) supplemented with 10% fetal bovine serum (F7524, Sigma-Aldrich), 1% P/S (P4333, Sigma-Aldrich). 20,000 cells per well of HepG2 cells were seeded into a 96-well plate and triplicated for MTT assay and LDH assay. Cell viability was measured by MTT assay (M6494, ThermoFisher) and cytotoxicity was measured by LDH assay kit (ab65393, abcam) by following manufacturer's instructions. Optical density (O.D) was numerated using a microplate reader (Hidex Sense Meta Plus).

GPX4 = assay: Western blot, GPX4; settings: compared to the control
Method: as §1

HepG2 cells [4] = assay: Cellular ROS assay (DCFDA); settings: 10 μM, one day
Method: HepG2 cells were seeded into a 6-well plate at 400,000 cells per well. After treatment with the compounds at desired concentration and time, TMRE (ab113852, abcam), Autophagy (ab139484, abcam), ROS (ab113851, abcam), and Lipid peroxidation (ab243377, abcam) assay were performed according to manufacturer's instructions. Fluorescence images were taken using ZOE™ Fluorescent Cell Imager (Biorad) and ROI of fluorescence intensity was measured and calculated by Image J. For microplate reader florescence assay, 40,000 of HepG2 cells were seeded into a 96-well plate and triplicated. GFP (Ex480 nm, Em530 nm) and RFP (Ex549 nm, Em574 nm) were measured using a microplate reader (Hidex Sense Meta Plus).

Structure (SMILES)	nuclear c-Myc expression (c-Myc)	increase in cleaved PARP vs untreated control (PARP)	inhibition of cell cycle-related pathways (E2F targets, G2M checkpoint), GSEA (HepG2 cells [1])	p53 pathways activity (PROGENy) (HepG2 cells [1])	nuclear-localized p53 (p53)	necrotic cell death (PI staining) (HepG2 cells [2])	active caspase 3 levels (Caspase 3)	necrotic cell death (LDH) (HepG2 cells [3])	GPX4 expression levels (GPX4)	cellular ROS (HepG2 cells [4])
N#Cc1c(NC(=O)c2cccc3ccccc23)sc2c1CCCC2 [JNK-IN-5A, N-(3-cyano-4,5,6,7-tetrahydrobenzo[b]thiophen-2-yl)-1-naphthamide]	significantly reduced	–	–	–	–	–	–	–	–	–
COc1ccc(C(=O)Nc2sc3c(c2C#N)CCCCC3)cc1OC [PKL-A135, N-(3-cyano-5,6,7,8-tetrahydro-4H-cyclohepta[b]thiophen-2-yl)-3,4-dimethoxy-benzamide]	–	78.31 times	most potent inhibitor	significantly activated	significant increase	significantly induced necrotic cell death	11.85 times	pronounced necrotic cell death from day 1 to day 4	0.58 times	–
N#Cc1c(NC(=O)c2cccc3ccccc23)sc2c1CCN(CC(=O)Nc1cccc(Br)c1)C2 [PKL-B171]	most substantial decrease	87.97 times	–	significantly activated	significant increase	significantly induced necrotic cell death	14.66 times	pronounced late necrotic cell death from day 3 to 4	0.88 times	significantly increased
